Assay results published in patent US11014895B2, “Heterocyclic urea compound, and drug composition and application thereof” (CHINA PHARMACEUTICAL UNIVERSITY, priority 2017, dated 2021).

Key:
IDO1 enzyme = IDO1 enzyme (Homo sapiens, UniProt P14902); assay: Determination of biochemical activity of IDO1 enzyme (absorbance at 320 nm); conditions: room temperature, 3 hours
Description: (1) Method for Determining Biochemical Activity of IDO1 Enzyme
Firstly, 15 μl of buffer solution of sodium hydrogen phosphate (PH:7-8), 5 μl of reaction buffer solution containing a proper amount of IDO-1 enzyme and heterocyclic urea compound prepared by the invention were added into wells of a microplate, mixed evenly, and reacted at room temperature for 3 hours; then a light absorption value at 320 nm wavelength was detected by using Envision Multilabel Reader of PE company, an inhibition rate of the heterocyclic urea compound on the enzyme reaction was calculated according to an absorption ratio, and an IC50 value of the heterocyclic urea compound was calculated through analysis by GraphPad.

[1] = molecular target: T1, IDO1 enzyme in the Hela cell (Homo sapiens, UniProt P14902); assay: Cell activity: interferon γ-stimulated Hela cells, absorbance of supernatant at 480 nm; assay type: cell-based; conditions: interferon γ 100 ng/ml, 72 hours
T1 construct: endogenous in cells; host or cells: HeLa cells stimulated with interferon γ (100 ng/ml)
T1 sequence (P14902 whole entry): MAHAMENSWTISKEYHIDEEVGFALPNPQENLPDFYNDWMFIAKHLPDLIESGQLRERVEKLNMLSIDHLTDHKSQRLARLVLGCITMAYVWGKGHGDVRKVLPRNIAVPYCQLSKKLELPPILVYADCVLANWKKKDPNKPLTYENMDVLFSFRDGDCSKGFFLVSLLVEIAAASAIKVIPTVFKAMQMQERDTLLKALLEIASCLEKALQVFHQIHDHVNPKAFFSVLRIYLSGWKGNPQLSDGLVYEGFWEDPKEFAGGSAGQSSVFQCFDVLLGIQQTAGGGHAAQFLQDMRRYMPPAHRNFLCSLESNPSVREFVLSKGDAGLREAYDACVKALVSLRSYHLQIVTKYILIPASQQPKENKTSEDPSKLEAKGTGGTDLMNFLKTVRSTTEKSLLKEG
Description: (2) Method for Determining Cell Activity
Hela cells were cultured and passaged in a DMEM medium supplemented with antibiotics in a 37° C. CO2 incubator, inoculated into a 96-well plate for overnight culture, then 1 μl of heterocyclic urea compound with appropriate concentration was added to each well, and then 100 μl of interferon γ (final concentration was 100 ng/ml) was added. After the cells were continuously cultured for 72 hours, 70 μl of cell culture supernatant was added to a 96-well V-bottom plate, 5 μl of trichloroacetic acid (6.1 N) was added to each well, incubated at 50° C. for 30 min, then taken out and centrifuged at […] for 10 min. The above centrifuged supernatant was transferred to a 384-well microplate (20 μl/well), then 20 μl of 2% didimethylaminobenzaldehyde acetic acid solution was added to each well, shaken and mixed evenly, then photometric absorption was performed at 480 nm, and values were measured.

Sequence of IDO1 enzyme (P14902 whole entry): as above

IC50 (IDO1 enzyme) | IC50 [1] | Compound
< 0.001 µM | < 0.001 µM | NS(=O)(=O)N1CCC(NC(=O)Nc2nonc2/C(=N/O)Nc2ccc(F)c(Br)c2)CC1 [Embodiment 15, (Z)-1-(4-(N-(3-bromo-4-fluorophenyl)-N′-hydroxyaminoiminomethyl)-1,2,5-oxadiazole-3-substituted)-3-(1(aminosulfonyl)piperidine-4-substituted)urea]
0.1 to 1 µM | 0.1 to 1 µM | NCCNC(=O)Nc1nonc1/C(=N/O)Nc1ccc(F)c(Br)c1 [Embodiment 16, (Z)-1-(4-(N-(3-bromo-4-fluorophenyl)-N′-hydroxyaminoiminomethyl)-1,2,5-oxadiazole-3-substituted)-3-(2-aminoethyl)urea]
< 0.001 µM | < 0.001 µM | CS(=O)(=O)NCCCNC(=O)Nc1nonc1/C(=N/O)Nc1ccc(F)c(Br)c1 [Embodiment 17, (Z)-1-(4-(N-(3-bromo-4-fluorophenyl)-N′-hydroxyaminoiminomethyl)-1,2,5-oxadiazole-3-substituted)-3-(3-methamido-propyl)urea]
< 0.001 µM | < 0.001 µM | NS(=O)(=O)NCCCNC(=O)Nc1nonc1/C(=N/O)Nc1ccc(F)c(Br)c1 [Embodiment 18, (Z)-1-(4-(N-(3-bromo-4-fluorophenyl)-N′-hydroxyaminoiminomethyl)-1,2,5-oxadiazole-3-substituted)-3-(3-aminosulfonylamino-propyl)urea]
0.1 to 1 µM | 0.1 to 1 µM | O=C(Nc1ccccc1)Nc1nonc1/C(=N/O)Nc1ccc(F)c(Br)c1 [Embodiment 19, (Z)-1-(4-(N-(4-bromo-3-fluorophenyl)-N′-hydroxyaminoiminomethyl)-1,2,5-oxadiazole-3-substituted)-3-phenylurea]
0.1 to 1 µM | 0.1 to 1 µM | COc1ccc(NC(=O)Nc2nonc2/C(=N/O)Nc2ccc(F)c(Br)c2)c(F)c1 [Embodiment 20, (Z)-1-(4-(N-(3-bromo-4-fluorophenyl)-N′-hydroxyaminoiminomethyl)-1,2,5-oxadiazole-3-substituted)-3-(4-methoxy-2-fluorophenyl)urea]
0.1 to 1 µM | 0.1 to 1 µM | COc1ccc(NC(=O)Nc2nonc2/C(=N/O)Nc2ccc(F)c(Br)c2)cc1C(F)(F)F [Embodiment 21, (Z)-1-(4-(N-(3-bromo-4-fluorophenyl)-N′-hydroxyaminoiminomethyl)-1,2,5-oxadiazole-3-substituted)-3-(4-methoxy-2-trifluoromethylphenyl)urea]
0.1 to 1 µM | 0.1 to 1 µM | COc1ccc(NC(=O)Nc2nonc2/C(=N/O)Nc2ccc(F)c(Cl)c2)cc1 [Embodiment 22, (Z)-1-(4-(N-(3-chloro-4-fluorophenyl)-N′-hydroxyaminoiminomethyl)-1,2,5-oxadiazole-3-substituted)-3-(4-methoxyphenyl)urea]
< 0.001 µM | < 0.001 µM | O=C(Nc1ccc(O)cc1)Nc1nonc1/C(=N/O)Nc1ccc(F)c(Cl)c1 [Embodiment 23]
< 0.001 µM | < 0.001 µM | Nc1ccc(NC(=O)Nc2nonc2/C(=N/O)Nc2ccc(F)c(Cl)c2)cc1 [Embodiment 24, (Z)-1-(4-(N-(3-chloro-4-fluorophenyl)-N′-hydroxyaminoiminomethyl)-1,2,5-oxadiazole-3-substituted)-3-(4-aminophenyl)urea]
0.1 to 1 µM | 0.1 to 1 µM | O=C(Nc1nonc1/C(=N/O)Nc1ccc(F)c(Cl)c1)NC1CCCCC1 [Embodiment 25, (Z)-1-(4-(N-(3-chloro-4-fluorophenyl)-N′-hydroxyaminoiminomethyl)-1,2,5-oxadiazole-3-substituted)-3-cyclohexylurea]
< 0.001 µM | < 0.001 µM | NC1CCC(NC(=O)Nc2nonc2/C(=N/O)Nc2ccc(F)c(Cl)c2)CC1 (stereo not shown) [Embodiment 26]
< 0.001 µM | < 0.001 µM | O=C(NCCO)Nc1nonc1/C(=N/O)Nc1ccc(F)c(Cl)c1 [Embodiment 28, (Z)-1-(4-(N-(3-chloro-4-fluorophenyl)-N′-hydroxyaminoiminomethyl)-1,2,5-oxadiazole-3-substituted)-3-(23-hydroxyethane)urea]
< 0.001 µM | < 0.001 µM | CS(=O)(=O)NCCNC(=O)Nc1nonc1/C(=N/O)Nc1ccc(F)c(Cl)c1 [Embodiment 29, (Z)-1-(4-(N-(3-chloro-4-fluorophenyl)-N′-hydroxyaminoiminomethyl)-1,2,5-oxadiazole-3-substituted)-3-(3-methamido-ethyl)urea]
< 0.001 µM | < 0.001 µM | NS(=O)(=O)NCCNC(=O)Nc1nonc1/C(=N/O)Nc1ccc(F)c(Cl)c1 [Embodiment 30]

Second part, the compound before the results:

Compound | IC50 (IDO1 enzyme) | IC50 [1]
COc1ccc(NC(=O)Nc2nonc2/C(=N/O)Nc2ccc(F)c(Br)c2)cc1 [Embodiment 1, (Z)-1-(4-(N-(3-bromo-4-fluorophenyl)-N′-hydroxyaminoiminomethyl)-1,2,5-oxadiazole-3-substituted)-3-(4-methoxyphenyl)urea] | 0.1 to 1 µM | 0.1 to 1 µM
CCc1cccc(NC(=O)Nc2nonc2/C(=N/O)Nc2ccc(F)c(Br)c2)c1 [Embodiment 2, (Z)-1-(4-(N-(3-bromo-4-fluorophenyl)-N′-hydroxyaminoiminomethyl)-1,2,5-oxadiazole-3-substituted)-3-(3-ethylphenyl)urea] | 0.1 to 1 µM | 0.1 to 1 µM
COc1ccccc1NC(=O)Nc1nonc1/C(=N/O)Nc1ccc(F)c(Br)c1 [Embodiment 3, (Z)-1-(4-(N-(3-bromo-4-fluorophenyl)-N′-hydroxyaminoiminomethyl)-1,2,5-oxadiazole-3-substituted)-3-(2-methoxyphenyl)urea] | > 1 µM | > 1 µM
Cc1ccc(NC(=O)Nc2nonc2/C(=N/O)Nc2ccc(F)c(Br)c2)cc1 [Embodiment 4] | > 1 µM | > 1 µM
O=C(Nc1ccc(F)cc1)Nc1nonc1/C(=N/O)Nc1ccc(F)c(Br)c1 [Embodiment 5, (Z)-1-(4-(N-(4-bromo-3-fluorophenyl)-N′-hydroxyaminoiminomethyl)-1,2,5-oxadiazole-3-substituted)-3-(4-fluorophenyl)urea] | > 1 µM | > 1 µM
O=C(Nc1ccc(C(F)(F)F)cc1)Nc1nonc1/C(=N/O)Nc1ccc(F)c(Br)c1 [Embodiment 6, (Z)-1-(4-(N-(3-bromo-4-fluorophenyl)-N′-hydroxyaminoiminomethyl)-1,2,5-oxadiazole-3-substituted)-3-(4-trifluorotolyl)urea] | > 1 µM | > 1 µM
O=C(Nc1nonc1/C(=N/O)Nc1ccc(F)c(Br)c1)NC1CCCCC1 [Embodiment 7, (Z)-1-(4-(N-(3-bromo-4-fluorophenyl)-N′-hydroxyaminoiminomethyl)-1,2,5-oxadiazole-3-substituted)-3-cyclohexylurea] | 0.1 to 1 µM | 0.1 to 1 µM
O=C(Nc1nonc1/C(=N/O)Nc1ccc(F)c(Br)c1)NC1CCCC1 [Embodiment 8, (Z)-1-(4-(N-(3-bromo-4-fluorophenyl)-N′-hydroxyaminoiminomethyl)-1,2,5-oxadiazole-3-substituted)-3-cyclopentylurea] | 0.1 to 1 µM | 0.1 to 1 µM
CC1CCC(NC(=O)Nc2nonc2/C(=N/O)Nc2ccc(F)c(Br)c2)CC1 (stereo not shown) [Embodiment 9, (Z)-1-(4-(N-(3-bromo-4-fluorophenyl)-N′-hydroxyaminoiminomethyl)-1,2,5-oxadiazole-3-substituted)-3-(4-methylcyclohexyl)urea] | > 1 µM | > 1 µM
O=C(Nc1nonc1/C(=N/O)Nc1ccc(F)c(Br)c1)NC1CCOCC1 [Embodiment 10, (Z)-1-(4-(N-(3-bromo-4-fluorophenyl)-N′-hydroxyaminoiminomethyl)-1,2,5-oxadiazole-3-substituted)-3-(tetrahydro-2H-pyran-4-substituted)urea] | < 0.001 µM | < 0.001 µM
O=C(Nc1nonc1/C(=N/O)Nc1ccc(F)c(Br)c1)NC1CCNCC1 [Embodiment 11, (Z)-1-(4-(N-(3-bromo-4-fluorophenyl)-N′-hydroxyaminoiminomethyl)-1,2,5-oxadiazole-3-substituted)-3-(piperidine-4-substituted)urea] | < 0.001 µM | < 0.001 µM
CS(=O)(=O)N1CCC(NC(=O)Nc2nonc2/C(=N/O)Nc2ccc(F)c(Br)c2)CC1 [Embodiment 12, (Z)-1-(4-(N-(3-bromo-4-fluorophenyl)-N′-hydroxyaminoiminomethyl)-1,2,5-oxadiazole-3-substituted)-3-(1(methsulfonyl)piperidine-4-substituted)urea] | 0.1 to 1 µM | 0.1 to 1 µM
O=C(NCCCO)Nc1nonc1/C(=N/O)Nc1ccc(F)c(Br)c1 [Embodiment 13, (Z)-1-(4-(N-(3-bromo-4-fluorophenyl)-N′-hydroxyaminoiminomethyl)-1,2,5-oxadiazole-3-substituted)-3-(3-hydroxypropane)urea] | < 0.001 µM | < 0.001 µM
NCCCNC(=O)Nc1nonc1/C(=N/O)Nc1ccc(F)c(Br)c1 [Embodiment 14, (Z)-1-(4-(N-(3-bromo-4-fluorophenyl)-N′-hydroxyaminoiminomethyl)-1,2,5-oxadiazole-3-substituted)-3-(3-aminopropane)urea] | < 0.001 µM | < 0.001 µM
